Biological target: human DGAT2 (hDGAT2) (Homo sapiens (Human), UniProt Q96PD7)
Assay: DGAT2 Enzymatic Activity Assay
Type: biochemical
Conditions: membrane prep of Sf-9 insect cells expressing hDGAT2; 13C18-triolein product by LC/MS/MS
Experimental: Sf-9 insect cells were maintained in Grace's insect cell culture medium with 10% heated-inactivated fetal bovine serum, 1% Pluronic F-68 and 0.14 μg/ml Kanamycine sulfate at 27° C. in a shaker incubator. After infection with untagged baculovirus expressing human DGAT2 (hDGAT2) at multiplicity of infection (MOI) 3 for 48 hours, cells were harvested. Cell pellets were suspended in buffer containing 10 mM Tris-HCl pH 7.5, 1 mM EDTA, 250 mM sucrose and Complete Protease Inhibitor Cocktail (Sigma Aldrich), and sonicated on ice. Cell debris were removed by centrifugation at 2000×g for 15 minutes. Membrane fractions were isolated by ultracentrifugation (100,000×g), resuspended in the same buffer, and frozen (−80° C.) for later use. The protein concentration was determined with the Pierce™ BCA Protein Assay Kit (Thermo Fisher Scientific). Expression of protein levels was analyzed by immunoblotting with rabbit anti-DGAT2 antibody (Abcam, ab102831) and donkey anti-rabbit IgG H&L Alexa Fluor® 647 (Abcam, ab150075) followed by detection using Typhoon FLA9000 (GE Healthcare).
LC/MS/MS analyses were performed using Thermal Fisher's LX4-TSQ Vantage system. This system consists of an Agilent binary high-performance liquid chromatography (HPLC) pumps and a TSQ Vantage triple quadrupole MS/MS instrument. For each sample, 2 μL samples from the top organic layer of in-plate liquid-liquid extraction were injected onto a Thermo Betabasic C4 column (2.1 mm×20 mm, 5 μm particle size). The samples were then eluted using the following conditions; mobile phase: Isopropanol: acetonitrile/10 mM ammonium formate=50/35/15 (v/v/v), flow rate: 0.8 mL/min, temperature: 25° C. Data was acquired in positive mode using a heated electrospray ionization (HESI) interface. The operational parameters for the TSQ Vantage MS/MS instrument were a spray voltage of 3000 V, capillary temperature of 280° C., vaporizer temperature 400° C., sheath gas 45 arbitrary unit, Aux gas 10 arbitrary units, S-lens 165 and collision gas 1.0 mTorr. […] (SRM) chromatograms of ^13C18-triolein (Q1: 920.8>Q3:621.3) and internal standard ^13C21-triolein (Q1: 923.8>Q3:617.3) were collected for 33 sec. The peak area was integrated by Xcalibur Quan software. The ratio between the ^13C18 triolein generated in the reaction and spiked in internal standard ^13C21-triolein was used to generate percentage inhibition and IC50 values. Compound percentage inhibition was calculated by the following formula: Inhibition %=1−[(compound response−low control)/(high control−low control)]×100%. Potent compounds were titrated and IC50 were calculated by 4 parameter sigmoidal curve fitting formula.
DGAT2 activity was determined by measuring the amount of enzymatic product ^13C18-triolein (^13C-1,2,3-Tri(cis-9-octadecenoyl)glycerol) using the membrane prep mentioned above. The assay was carried out in ABgene 384-well assay plates in a final volume of 25 μL at rt. The assay mixture contained the following: assay buffer (100 mM Tris·Cl, pH 7.0, 20 mM MgCl2, 5% ethanol), 25 μM of diolein, 5 μM of ^13C oleoyl-CoA and 8 ng/μL of DGAT2 membrane.

Sequence of human DGAT2 (hDGAT2) (Q96PD7 whole entry): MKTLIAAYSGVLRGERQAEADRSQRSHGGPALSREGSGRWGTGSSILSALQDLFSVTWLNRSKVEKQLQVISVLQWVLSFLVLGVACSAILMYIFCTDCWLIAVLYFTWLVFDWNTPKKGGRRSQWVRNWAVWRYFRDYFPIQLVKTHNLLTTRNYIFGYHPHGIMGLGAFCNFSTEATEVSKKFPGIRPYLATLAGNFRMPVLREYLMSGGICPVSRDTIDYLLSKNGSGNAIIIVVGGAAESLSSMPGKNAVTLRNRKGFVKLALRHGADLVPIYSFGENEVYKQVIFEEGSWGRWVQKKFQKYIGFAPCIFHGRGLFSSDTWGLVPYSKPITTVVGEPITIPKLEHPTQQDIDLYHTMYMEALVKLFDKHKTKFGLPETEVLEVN

Row | SMILES | IC50 [nM]
1 | CC1(NC(=O)c2cnc3c(-c4cncc(OC(F)F)c4)nn(C4CCOCC4)c3c2)CS(=O)(=O)C1 [Example 64, 3-[5-(difluoromethoxy)-3-pyridyl]-N-(3-methyl-1,1-dioxo-thietan-3-yl)-1-tetrahydropyran-4-yl-pyrazolo[4,3-b]pyridine-6-carboxamide] | 177
2 | CC[C@H](C)n1nc(-c2cc(OC(F)F)ncc2F)c2ncc(C(=O)NC3(C)CCS(=O)(=O)CC3)cc21 [Example 116, (S)-1-(sec-butyl)-3-(2-(difluoromethoxy)-5-fluoropyridin-4-yl)-N-(4-methyl-1,1-dioxidotetrahydro-2H-thiopyran-4-yl)-1H-pyrazolo[4,3-b]pyridine-6-carboxamide] | 11.5
3 | CC(C)Cn1nc(-c2cccc(OC(F)F)c2)c2ncc(C(=O)NC3(C)CS(=O)(=O)C3)cc21 [Example 28, 3-(3-(difluoromethoxy)phenyl)-1-isobutyl-N-(3-methyl-1,1-dioxidothietan-3-yl)-1H-pyrazolo[4,3-b]pyridine-6-carboxamide] | 29
4 | C[C@]1(NC(=O)c2cnc3c(-c4ccccc4Cl)cn(-c4ccc(F)cc4)c3c2)CCS(=O)(=O)C1 [Example 11, (S)-3-(2-chlorophenyl)-1-(4-fluorophenyl)-N-(3-methyl-1,1-dioxidotetrahydrothiophen-3-yl)-1H-pyrrolo[3,2-b]pyridine-6-carboxamide] | 186
5 | CC(C)n1nc(-c2cccc(F)c2)c2ncc(C(=O)NC3(C)CS(=O)(=O)C3)cc21 [Example 104, 3-(3-fluorophenyl)-1-isopropyl-N-(3-methyl-1,1-dioxo-thietan-3-yl)pyrazolo[4,3-b]pyridine-6-carboxamide] | 119
6 | Cn1nc(-c2cccc(OC(F)F)c2)c2ncc(C(=O)NC3(C)CS(=O)(=O)C3)cc21 [Example 26, 3-(3-(difluoromethoxy)phenyl)-1-methyl-N-(3-methyl-1,1-dioxidothietan-3-yl)-1H-pyrazolo[4,3-b]pyridine-6-carboxamide] | 153
7 | CCn1nc(-c2cccc(OC(F)F)c2)c2ncc(C(=O)NC3(C)CS(=O)(=O)C3)cc21 [Example 27, 3-(3-(difluoromethoxy)phenyl)-1-ethyl-N-(3-methyl-1,1-dioxidothietan-3-yl)-1H-pyrazolo[4,3-b]pyridine-6-carboxamide] | 111

These reach a lower IC50. Values come first.

Row | IC50 [nM] | SMILES
8 | 11 | C[C@]1(NC(=O)c2cc3c(cn2)c(-c2cccc(OC(F)F)c2)nn3-c2ccc(F)cc2)CCS(=O)(=O)C1 [Example 5, (S)-3-(3-(difluoromethoxy)phenyl)-1-(4-fluorophenyl)-N-(3-methyl-1,1-dioxidotetrahydrothiophen-3-yl)-1H-pyrazolo[4,3-c]pyridine-6-carboxamide]
9 | 11 | CC(C)n1nc(-c2cccc(OC(F)F)c2)c2ncc(C(=O)N[C@]3(C#N)CCOC3)cc21 [Example 38, N-[(3S)-3-cyanotetrahydrofuran-3-yl]-3-[3-(difluoromethoxy)phenyl]-1-isopropyl-pyrazolo[4,3-b]pyridine-6-carboxamide]
10 | 9.6 | CC(C)n1nc(-c2cc(C3CC3)ccc2F)c2ncc(C(=O)NC3(C)CS(=O)(=O)C3)cc21 [Example 117, 3-(5-cyclopropyl-2-fluorophenyl)-1-isopropyl-N-(3-methyl-1,1-dioxidothietan-3-yl)-1H-pyrazolo[4,3-b]pyridine-6-carboxamide]
11 | 2 | CC(C)n1nc(-c2cccc(OC(F)F)c2)c2c(C#N)cc(C(=O)NC3(C)CS(=O)(=O)C3)cc21 [Example 91, 4-cyano-3-(3-(difluoromethoxy)phenyl)-1-isopropyl-N-(3-methyl-1,1-dioxidothietan-3-yl)-1H-indazole-6-carboxamide]
12 | 7.2 | CC(C)n1nc(-c2cc(OC(F)F)ccc2Cl)c2ncc(C(=O)NC3(C)CS(=O)(=O)C3)cc21 [Example 120, 3-(2-chloro-5-(difluoromethoxy)phenyl)-1-isopropyl-N-(3-methyl-1,1-dioxidothietan-3-yl)-1H-pyrazolo[4,3-b]pyridine-6-carboxamide]

From patent US20240059700A1, “NOVEL DIACYLGLYCERIDE O-ACYLTRANSFERASE 2 INHIBITORS” (Merck Sharp & Dohme LLC, priority 2020, published 2024)
